Measured values reported in EP0458892B1, “USE OF CHLORMETHIAZOLE IN THE MANUFACTURE OF A MEDICAMENT FOR THE PREVENTION AND/OR TREATMENT OF NEURODEGENERATION” (priority 1989, dated 1990).

Legend:
[1] = system: CA1/CA2 hippocampal neurones; test: Gerbil carotid occlusion ischaemia, test compound administered prior to induction of ischaemia; format: in vivo; settings: gerbils; for % Damage to CA1/CA2 Hippocampal Neurones: assessed after 4 days
Description: (§1) The detailed mechanisms that underlie ischaemia-induced degeneration of hippocampal neurones have yet to be clarified, but the above mentioned gerbil test system has been widely used as a predictive model of neuroprotective activity (see, for example, B.J. Alps, C. Calder, W.K. Hass and A.D. Wilson, Brit. J. Pharmacol., 1988, 93, 877-883; R. Gill, A.C. Foster and G.N. Woodruff, J. Neuroscience, 1987, 7, 3343-3349).
(§2) Ischaemia was induced in gerbils by occlusion of the carotid arteries following the accepted general procedure as described in, for example, EP 230 370 and R. Gill, A.C. Foster and G.N. Woodruff, J. Neuroscience, 1987, 7, 3343-3349.
(§3) Ischaemia was induced in gerbils by 10 minute occlusion of both carotid arteries. Restoration of blood flow after occlusion was checked visually and the animals were allowed to survive for 4 days. The extent of neuronal degeneration in the hippocampus was then assessed. The test compounds were administered (i.p.) as a single dose 30 minutes prior to occlusion.

[2] = system: CA1/CA2 hippocampal neurones; test: Gerbil carotid occlusion ischaemia, test compound administered following induction of ischaemia; format: in vivo; settings: gerbils; for % Damage to CA1/CA2 Hippocampal Neurones: assessed after 4 days
Description: as §1, §2, §3
The general procedure described in (a) above was followed except that the test compound was administered (i.p.) as a single dose at the stated time following the end of the occlusion. No administration was made prior to the occlusion.

Cc1ncsc1CCCl [Chlormethiazole ethanedisulphonate]
% Damage to CA1/CA2 Hippocampal Neurones ([1]; 50mg/kg i.p. single dose 30 minutes prior to 10 minute occlusion of both carotid arteries): 37.6 ± 13.4% | % Damage to CA1/CA2 Hippocampal Neurones ([1]; 100mg/kg i.p. single dose 30 minutes prior to 10 minute occlusion of both carotid arteries): < 5% | % Damage to CA1/CA2 Hippocampal Neurones ([2]; 50mg/kg i.p. single dose 30 minutes after the end of 10 minute occlusion): 69.4 ± 6.9% | % Damage to CA1/CA2 Hippocampal Neurones ([2]; 100mg/kg i.p. single dose 30 minutes after the end of 10 minute occlusion): 12.8 ± 10.4% | % Damage to CA1/CA2 Hippocampal Neurones ([2]; 100mg/kg i.p. single dose 1 hour after the end of 10 minute occlusion): 14.3 ± 8.7% | % Damage to CA1/CA2 Hippocampal Neurones ([2]; 100mg/kg i.p. single dose 2 hours after the end of 10 minute occlusion): 7.25 ± 4.8% | % Damage to CA1/CA2 Hippocampal Neurones ([2]; 100mg/kg i.p. single dose 6 hours after the end of 10 minute occlusion): 45.6 ± 14%

CC(C(O)c1ccc(O)cc1)N1CCC(Cc2ccccc2)CC1 (centres unmarked) [Ifenprodil]
% Damage to CA1/CA2 Hippocampal Neurones ([1]; 4mg/kg i.p. single dose 30 minutes prior to 10 minute occlusion of both carotid arteries): 62 ± 8.0%

C[C@]12N[C@H](Cc3ccccc31)c1ccccc12 [MK 801]
% Damage to CA1/CA2 Hippocampal Neurones ([1]; 3mg/kg i.p. single dose 30 minutes prior to 10 minute occlusion of both carotid arteries): < 5%

Cc1ncsc1CCCl [chlormethiazole, 5-(2-chloroethyl)-4-methylthiazole]
damage to the CA1/CA2 hippocampal neurones (result in words) ([1]; i.p. single dose 30 minutes prior to occlusion, summary of Table 1): effective in reducing the damage to the CA1/CA2 hippocampal neurones | damage to the CA1/CA2 hippocampal neurones (result in words) ([2]; i.p. single dose after the ischaemic insult, summary of Table 2): effective in reducing the damage to the CA1/CA2 hippocampal neurones
